Source: the supplement of paper PMC10331698
± gives the standard deviation of the averaged measurements.

Legend:
Assay in all cases: level (log10 ratio to DMSO vehicle control); higher = higher biomarker level / cell amount than vehicle control
[1] = compound: COC(=O)C(F)(F)C(F)(F)OC(F)(C(F)(F)F)C(F)(F)OC(F)=C(F)F [Methyl perfluoro(3-(1-ethenyloxypropan-2-yloxy)propanoate)]; settings: in DMSO
Experimental: (§1)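 BioMAP Diversity Plus panel of 12 human primary cell co-culture systems (3C, 4H, LPS, SAg, BT, BF4T, BE3C, CASM3C, HDF3CGF, KF3CT, MyoF, Mphg). Compounds were added 1 h before stimulation and left for 24 h (MyoF 48 h; BT 72 h for soluble read-outs or 6 d for IgG). Biomarkers were read by ELISA, cytotoxicity by SRB, PBMC viability and proliferation by Alamar Blue. Each well value was divided by the mean of 8 DMSO control wells on the same plate and log10 transformed; duplicate blinded samples were tested at 4 concentrations.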

[2] = compound: OCC(F)(F)C(F)(F)C(F)(F)CO [Hexafluoroamylene glycol]; settings: in DMSO
Experimental: as §1

[3] = compound: C=C(C)C(=O)OCCC(F)(F)C(F)(F)C(F)(F)C(F)(F)C(F)(F)C(F)(F)F [6:2 Fluorotelomer methacrylate]; settings: in DMSO
Experimental: as §1

[4] = compound: C=CC(=O)OCC(F)(F)C(F)(F)C(F)(F)COC(=O)C=C [1H,1H,5H,5H-Perfluoro-1,5-pentanediol diacrylate]; settings: 6700 nM; in DMSO
Experimental: as §1

[5] = compound: O=C(O)C=CC(F)(C(F)(F)F)C(F)(F)F [3-(Perfluoroisopropyl)-2-propenoic acid]; settings: in DMSO
Experimental: as §1

[6] = compound: NC(=O)C(F)(F)C(F)(F)C(F)(F)C(F)(F)C(N)=O [Octafluoroadipamide]; settings: in DMSO
Experimental: as §1

[7] = compound: FC(F)(F)C(F)(F)C(F)(F)C(F)(F)C(F)(F)C(F)(F)CC1CO1 [3-(Perfluorohexyl)-1,2-epoxypropane]; settings: in DMSO
Experimental: as §1

[8] = compound: FC(F)(F)C(F)(F)C(F)(F)C(F)(F)C(F)(F)C(F)(F)C(F)(F)I [1-Iodopentadecafluoroheptane]; settings: in DMSO
Experimental: as §1

Row | Test System | level (log10) ([1]; 6700 nM) | level (log10) ([1]; 20000 nM) | level (log10) ([2]; 6700 nM) | level (log10) ([2]; 20000 nM) | level (log10) ([2]; 60000 nM) | level (log10) ([3]; 6700 nM) | level (log10) ([3]; 20000 nM) | level (log10) ([3]; 60000 nM) | level (log10) [4] | level (log10) ([5]; 6700 nM) | level (log10) ([5]; 20000 nM) | level (log10) ([5]; 60000 nM) | level (log10) ([6]; 6700 nM) | level (log10) ([6]; 20000 nM) | level (log10) ([6]; 60000 nM) | level (log10) ([7]; 6700 nM) | level (log10) ([7]; 20000 nM) | level (log10) ([7]; 60000 nM) | level (log10) ([8]; 6700 nM) | level (log10) ([8]; 20000 nM)
1 | BE3C:IL-1alpha | -0.0175 ± 0.005 | -0.005 ± 0.011 | -0.002 ± 0.0085 | 0.002 | 0.0135 ± 0.0092 | 0.0025 ± 0.016 | -0.0125 ± 0.0035 | 0.003 | -0.0415 ± 0.03 | -0.001 ± 0.031 | -0.0065 ± 0.0064 | 0.0025 ± 0.005 | 0.0085 ± 0.012 | -0.0105 ± 0.0064 | 0.0145 ± 0.033 | -0.0215 ± 0.0021 | -0.003 | 0 ± 0.0014 | -0.0175 ± 0.005 | -0.0185 ± 0.0021
2 | BT:Secreted IgG | 0.006 ± 0.0014 | 0.007 ± 0.03 | 0.022 ± 0.048 | 0.0275 ± 0.037 | 0.023 ± 0.017 | 0.0165 ± 0.00071 | -0.0065 ± 0.005 | -0.0095 ± 0.023 | -0.565 ± 0.17 | -0.041 ± 0.048 | -0.0035 ± 0.016 | -0.0205 ± 0.013 | 0.0345 ± 0.018 | 0.037 ± 0.0028 | 0.0215 ± 0.0078 | -0.0085 ± 0.032 | -0.0035 ± 0.018 | -0.0005 ± 0.018 | -0.006 ± 0.05 | -0.01 ± 0.044
3 | BT:B cell Proliferation | -0.009 ± 0.0099 | 0.01 ± 0.014 | 0.0165 ± 0.013 | 0.0285 ± 0.0064 | 0.0195 ± 0.043 | -0.0325 ± 0.043 | -0.0255 ± 0.021 | -0.008 | -0.24 ± 0.052 | 0.0085 ± 0.0021 | -0.011 ± 0.0014 | 0.012 ± 0.037 | -0.008 ± 0.025 | 0.018 ± 0.013 | 0.016 ± 0.025 | 0.0065 ± 0.026 | 0.0035 ± 0.0035 | -0.01 ± 0.0085 | -0.0045 ± 0.005 | 0.019 ± 0.0071
4 | BT:sIL-17A | 0.033 ± 0.018 | 0.061 ± 0.17 | -0.089 ± 0.0014 | -0.0745 ± 0.0064 | 0.0015 ± 0.05 | -0.058 ± 0.16 | 0.028 ± 0.099 | -0.078 ± 0.04 | -1.14 ± 0.22 | -0.01 ± 0.047 | 0.024 ± 0.14 | -0.124 ± 0.13 | -0.107 ± 0.018 | -0.0535 ± 0.098 | 0.0055 ± 0.025 | -0.0215 ± 0.057 | -0.0315 ± 0.12 | -0.041 ± 0.11 | -0.213 ± 0.3 | -0.112 ± 0.31
5 | BT:sIL-6 | 0.016 ± 0.024 | 0.0175 ± 0.047 | 0.0575 ± 0.0078 | 0.015 ± 0.031 | 0.014 ± 0.021 | 0.017 ± 0.014 | 0.059 ± 0.017 | -0.004 ± 0.089 | -0.692 ± 0.031 | 0.032 ± 0.089 | -0.0455 ± 0.056 | -0.025 ± 0.03 | 0.0215 ± 0.037 | 0.024 ± 0.0057 | 0.0065 ± 0.016 | 0.007 ± 0.079 | 0.014 ± 0.025 | -0.019 ± 0.02 | -0.0825 ± 0.0078 | 0.024 ± 0.044
6 | BF4T:PAI-I | -0.016 ± 0.0085 | -0.0175 ± 0.021 | -0.0025 ± 0.013 | -0.002 ± 0.021 | 0.0065 ± 0.0064 | -0.0175 ± 0.011 | -0.007 ± 0.0042 | -0.0075 ± 0.0035 | -0.0285 ± 0.00071 | 0 ± 0.0099 | 0.001 ± 0.0014 | 0.0155 ± 0.026 | -0.0005 ± 0.0035 | -0.0035 ± 0.00071 | 0.015 ± 0.023 | 0.003 ± 0.0085 | 0.007 | 0.007 ± 0.018 | -0.004 ± 0.0085 | -0.0235 ± 0.0092
7 | BT:sTNF-alpha | -0.0085 ± 0.018 | 0.0935 ± 0.032 | 0.0165 ± 0.037 | 0.0085 ± 0.022 | 0.0215 ± 0.064 | -0.0045 ± 0.0035 | 0.0045 ± 0.012 | -0.068 ± 0.058 | -0.94 ± 0.21 | -0.0275 ± 0.04 | -0.149 ± 0.1 | -0.028 ± 0.03 | 0.058 ± 0.23 | 0.116 ± 0.098 | 0.194 ± 0.077 | 0.013 ± 0.11 | 0.128 ± 0.0064 | 0.0765 ± 0.14 | -0.051 ± 0.018 | 0.093 ± 0.17
8 | BF4T:MMP-3 | 0.0165 ± 0.018 | 0.102 ± 0.021 | -0.016 ± 0.037 | -0.0205 ± 0.028 | 0.011 ± 0.042 | -0.001 ± 0.013 | -0.0215 ± 0.028 | 0.0055 ± 0.005 | 0.056 ± 0.028 | -0.003 ± 0.014 | -0.0035 ± 0.015 | 0.0205 ± 0.033 | -0.0145 ± 0.0078 | -0.0145 ± 0.015 | 0.003 ± 0.038 | 0.0155 ± 0.011 | 0.018 ± 0.024 | 0.0475 ± 0.03 | -0.0345 ± 0.039 | -0.0315 ± 0.016
9 | BF4T:uPA | -0.0075 ± 0.0064 | 0.02 ± 0.0028 | -0.0065 ± 0.021 | -0.006 ± 0.014 | 0.004 ± 0.0057 | -0.006 ± 0.0057 | 0.0005 ± 0.026 | 0.006 ± 0.011 | -0.019 ± 0.013 | -0.007 ± 0.016 | -0.016 ± 0.0057 | 0.0065 ± 0.018 | -0.0405 ± 0.0092 | -0.0325 ± 0.021 | -0.0165 ± 0.026 | -0.0045 ± 0.011 | -0.0115 ± 0.0064 | 0.012 ± 0.04 | -0.0365 ± 0.016 | -0.026 ± 0.016
10 | LPS:IL-1alpha | 0.0045 ± 0.022 | 0.0515 ± 0.011 | 0.047 ± 0.035 | -0.0045 ± 0.0035 | 0.03 ± 0.048 | -0.0225 ± 0.079 | -0.0355 ± 0.022 | 0.052 ± 0.0042 | -0.078 ± 0.038 | 0.025 ± 0.034 | 0.0195 ± 0.05 | 0.0605 ± 0.023 | 0.0005 ± 0.012 | 0.02 ± 0.017 | -0.0045 ± 0.00071 | 0.003 ± 0.018 | 0.012 ± 0.041 | 0.028 ± 0.027 | -0.0655 ± 0.03 | -0.0495 ± 0.047
11 | BF4T:tPA | -0.053 ± 0.025 | -0.046 ± 0.0028 | -0.017 ± 0.021 | -0.0015 ± 0.0092 | 0.012 ± 0.038 | -0.0185 ± 0.016 | -0.036 ± 0.038 | -0.014 ± 0.047 | -0.071 ± 0.014 | -0.004 ± 0.037 | -0.0055 ± 0.022 | 0.03 ± 0.024 | -0.0475 ± 0.035 | -0.047 ± 0.045 | -0.023 ± 0.081 | 0.0155 ± 0.039 | -0.011 ± 0.0085 | 0.031 ± 0.034 | 0.022 ± 0.025 | -0.0085 ± 0.016
12 | BE3C:HLA-DR | -0.0235 ± 0.042 | -0.0275 ± 0.032 | -0.0155 ± 0.0092 | -0.017 ± 0.014 | -0.019 ± 0.024 | 0.0015 ± 0.016 | -0.0065 ± 0.0064 | 0.0125 ± 0.005 | -0.0175 ± 0.028 | -0.0075 ± 0.013 | 0.0035 ± 0.015 | 0.0095 ± 0.018 | -0.003 ± 0.0014 | -0.0015 ± 0.00071 | 0.0175 ± 0.037 | 0 ± 0.0099 | -0.0025 ± 0.011 | 0.006 ± 0.017 | 0.0035 ± 0.0021 | 0.0015 ± 0.0078
13 | SAg:CCL2/MCP-1 | -0.01 ± 0.0085 | 0.011 ± 0.058 | -0.012 | -0.002 ± 0.011 | -0.016 ± 0.0099 | -0.001 ± 0.058 | 0 ± 0.025 | 0.0135 ± 0.005 | -0.13 ± 0.04 | -0.003 ± 0.0042 | -0.0005 ± 0.016 | -0.0055 ± 0.0064 | -0.001 ± 0.0071 | 0.002 ± 0.0014 | 0.0105 ± 0.016 | -0.0075 ± 0.012 | 0.0005 ± 0.0021 | 0.003 ± 0.016 | 0.02 ± 0.05 | 0.0105 ± 0.033
14 | BE3C:CXCL11/I-TAC | -0.038 ± 0.024 | -0.192 ± 0.025 | 0.002 ± 0.021 | 0.013 ± 0.045 | 0.035 ± 0.018 | 0.0125 ± 0.023 | 0 ± 0.014 | 0.0155 ± 0.028 | 0.0085 ± 0.011 | -0.0175 ± 0.0078 | -0.009 ± 0.0057 | 0.005 ± 0.011 | -0.0085 ± 0.0035 | -0.0155 ± 0.00071 | -0.014 ± 0.021 | -0.0115 ± 0.011 | -0.02 ± 0.011 | -0.009 ± 0.014 | 0.0005 ± 0.015 | 0.004 ± 0.013
